Laboratory results reported in EP4273147A1, “SUBSTITUTED SPIROLACTAMS, SALTS THEREOF AND THEIR USE AS HERBICIDALLY ACTIVE SUBSTANCES” (Bayer Aktiengesellschaft, priority 2022, dated 2023).

What was measured:
[1] = tested on: MATIN; test: Herbicidal pre-emergence action (Table A4); format: in vivo, Matricaria inodora; conditions: visual grading after ca. 3 weeks
In short: (§1)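 Seeds covered with soil after sowing in sandy loam; every pot carried one monocotyledonous and one dicotyledonous weed species as a double sowing.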

[2] = tested on: ECHCG; test: Herbicidal post-emergence action (Table B3); format: in vivo, Echinochloa crus-galli; conditions: rated visually after about 3 weeks
In short: (§2)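 Greenhouse pot test in sandy loam; weeds sown, treated post-emergence at one-leaf stage 2–3 weeks after sowing. Activity rated visually about 3 weeks later versus untreated controls, 100% = plants dead, 0% = like controls.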

[3] = tested on: LOLRI; test: Herbicidal pre-emergence action (Table A3); format: in vivo, Lolium rigidum; conditions: visual grading after ca. 3 weeks
In short: as §1

[4] = tested on: ECHCG; test: Herbicidal pre-emergence action (Table A2); format: in vivo, Echinochloa crus-galli; conditions: visual grading after ca. 3 weeks
In short: as §1

[5] = tested on: VERPE; test: Herbicidal post-emergence action (Table B10); format: in vivo, Veronica persica
In short: as §2

[6] = tested on: SETVI; test: Herbicidal pre-emergence action (Table A5); format: in vivo, Setaria viridis; conditions: application rate 320 g/ha; visual grading after ca. 3 weeks
In short: as §1

[7] = tested on: ALOMY; test: Herbicidal post-emergence action (Table B2); format: in vivo, Alopecurus myosuroides; conditions: application rate 1280 g/ha; rated visually after about 3 weeks
Procedure: (§3) Seeds of mono- and dicotyledonous weed plants were placed in plastic pots in sandy loam soil (doubly sown with in each case one species of mono- or dicotyledonous weed plants per pot), covered with soil and cultivated in a greenhouse under controlled growth conditions. 2 to 3 weeks after sowing, the test plants were treated at the one-leaf stage. […] After the test plants had been kept in the greenhouse under optimum growth conditions for about 3 weeks, the activity of the preparations was rated visually in comparison to untreated controls. For example, 100% activity = the plants have died, 0% activity = like control plants.

[8] = tested on: ALOMY; test: Herbicidal pre-emergence action (Table A9); format: in vivo, Alopecurus myosuroides; conditions: application rate 1280 g/ha; visual grading after ca. 3 weeks
In short: as §1

[9] = tested on: SETVI; test: Herbicidal post-emergence action (Table B8); format: in vivo, Setaria viridis
In short: as §2

[10] = tested on: POAAN; test: Herbicidal pre-emergence action (Table A7); format: in vivo, Poa annua
In short: as §1

[11] = tested on: VERPE; test: Herbicidal pre-emergence action, section C (Table C11); format: in vivo, Veronica persica; conditions: application rate 320 g/ha; visual grading after ca. 3 weeks
[12] = tested on: ZEAMX; test: Post-emergence effects on crop plants (Table F1); format: in vivo, Zea mays; conditions: application rate 320 g/ha, crop plant ZEAMX
Source text: (§4) 2 to 3 weeks after sowing, the test plants were sprayed in the single-leaf stage.

[13] = tested on: ALOMY; test: Herbicidal pre-emergence action, section C (Table C2); format: in vivo, Alopecurus myosuroides; conditions: application rate 320 g/ha; visual grading after ca. 3 weeks
[14] = tested on: ZEAMX; test: Pre-emergence effects on crop plants (Table D1); format: in vivo, Zea mays; conditions: crop plant; application rate 320 g/ha; visual grading after ca. 3 weeks
[15] = tested on: VIOTR; test: Herbicidal post-emergence action, section E (Table E10); format: in vivo, Viola tricolor; conditions: application rate 320 g/ha; assessed visually after ca. 3 weeks
Source text: as §4

[16] = tested on: MATIN; test: Herbicidal pre-emergence action, section C (Table C8); format: in vivo, Matricaria inodora; conditions: application rate 320 g/ha; visual grading after ca. 3 weeks
[17] = tested on: ORYZA; test: Post-emergence effects on crop plants (Table F3); format: in vivo, Oryza sativa; conditions: application rate 320 g/ha, crop plant ORYZA
Source text: as §4

[18] = tested on: LOLRI; test: Herbicidal pre-emergence action, section C (Table C7); format: in vivo, Lolium rigidum; conditions: application rate 320 g/ha; visual grading after ca. 3 weeks
[19] = tested on: TRZAS; test: Post-emergence effects on crop plants (Table F2); format: in vivo, Triticum aestivum; conditions: application rate 320 g/ha, crop plant TRZAS
Source text: as §4

[20] = tested on: BRSNW; test: Post-emergence effects on crop plants (Table F5); format: in vivo, Brassica napus; conditions: application rate 80 g/ha, crop plant BRSNW
Source text: as §4

[21] = tested on: ALOMY; test: Herbicidal post-emergence action, section E (Table E2); format: in vivo, Alopecurus myosuroides; conditions: application rate 320 g/ha; assessed visually after ca. 3 weeks
Source text: as §4

[22] = tested on: STEME; test: Herbicidal pre-emergence action (Table A6); format: in vivo, Stellaria media; conditions: application rate 320 g/ha; visual grading after ca. 3 weeks
In short: as §1

[23] = tested on: LOLRI; test: Herbicidal post-emergence action (Table B5); format: in vivo, Lolium rigidum; conditions: application rate 1280 g/ha; rated visually after about 3 weeks
Procedure: as §3

[24] = tested on: DIGSA; test: Herbicidal pre-emergence action (Table A12); format: in vivo, Digitaria sanguinalis; conditions: application rate 320 g/ha; visual grading after ca. 3 weeks
In short: as §1

[25] = tested on: AMARE; test: Herbicidal pre-emergence action (Table A8); format: in vivo, Amaranthus retroflexus; conditions: application rate 1280 g/ha; visual grading after ca. 3 weeks vs untreated controls (100% = plants have died off, 0% = as control plants)
In short: as §1

[26] = tested on: VIOTR; test: Herbicidal pre-emergence action, section C (Table C12); format: in vivo, Viola tricolor; conditions: application rate 80 g/ha; visual grading after ca. 3 weeks
[27] = tested on: MATIN; test: Herbicidal post-emergence action (Table B6); format: in vivo, Matricaria inodora; conditions: application rate 1280 g/ha; rated visually after about 3 weeks
In short: as §2

[28] = tested on: POLCO; test: Herbicidal pre-emergence action, section C (Table C9); format: in vivo, Polygonum convolvulus; conditions: application rate 320 g/ha; visual grading after ca. 3 weeks
[29] = tested on: ORYZA; test: Pre-emergence effects on crop plants (Table D3); conditions: crop plant; application rate 80 g/ha; visual grading after ca. 3 weeks
[30] = tested on: KCHSC; test: Herbicidal pre-emergence action (Table A10); format: in vivo, Kochia scoparia; conditions: application rate 320 g/ha; visual grading after ca. 3 weeks
In short: as §1

[31] = tested on: SETVI; test: Herbicidal pre-emergence action, section C (Table C10); format: in vivo, Setaria viridis; conditions: application rate 80 g/ha; visual grading after ca. 3 weeks
Source text: (§5) Seeds of mono- and dicotyledonous weed plants and crop plants were sown, in plastic or organic planting pots, in sandy loam and covered with soil. The compounds according to the invention, formulated in the form of wettable powders (WP) or as emulsifiable concentrates (EC), were applied to the surface of the covering soil as aqueous suspension or emulsion, with the addition of 0.5% of an additive, at an application rate of 600 1 of water/ha (converted). Following treatment, the pots were placed in a greenhouse and kept under optimum growth conditions for the test plants.

[32] = tested on: ECHCG; test: Herbicidal pre-emergence action, section C (Table C6); format: in vivo, Echinochloa crus-galli; conditions: application rate 80 g/ha; visual grading after ca. 3 weeks
Source text: as §5

[33] = tested on: BRSNW; test: Pre-emergence effects on crop plants (Table D5); format: in vivo, Brassica napus; conditions: crop plant; application rate 80 g/ha; visual grading after ca. 3 weeks
[34] = tested on: ABUTH; test: Herbicidal pre-emergence action (Table A1); format: in vivo, Abutilon theophrasti; conditions: application rate 1280 g/ha; visual grading after ca. 3 weeks vs untreated controls (100% = plants have died off, 0% = as control plants)
In short: as §1

[35] = tested on: ABUTH; test: Herbicidal pre-emergence action, section C (Table C1); format: in vivo, Abutilon theophrasti; conditions: application rate 320 g/ha; visual grading after ca. 3 weeks
Source text: as §5

[36] = tested on: VERPE; test: Herbicidal pre-emergence action (Table A11); format: in vivo, Veronica persica; conditions: application rate 1280 g/ha; visual grading after ca. 3 weeks
In short: as §1

[37] = tested on: TRZAS; test: Pre-emergence effects on crop plants (Table D2); format: in vivo, Triticum aestivum; conditions: crop plant; application rate 80 g/ha; visual grading after ca. 3 weeks
[38] = tested on: ECHCG; test: Herbicidal post-emergence action, section E (Table E5); format: in vivo, Echinochloa crus-galli; conditions: application rate 320 g/ha; assessed visually after ca. 3 weeks
Source text: as §4

[39] = tested on: GLXMA; test: Pre-emergence effects on crop plants (Table D4); format: in vivo, Glycine max; conditions: crop plant; application rate 320 g/ha; visual grading after ca. 3 weeks
[40] = tested on: DIGSA; test: Herbicidal pre-emergence action, section C (Table C5); format: in vivo, Digitaria sanguinalis; conditions: application rate 80 g/ha; visual grading after ca. 3 weeks
Source text: as §5

[41] = tested on: POAAN; test: Herbicidal post-emergence action (Table B7); format: in vivo, Poa annua; conditions: application rate 1280 g/ha
In short: as §2

[42] = application rate 320 g/ha, visual grading after ca. 3 weeks

O=C1N(Cc2ccccc2Cl)CCCC12CCCN(Cc1cccc(F)c1F)C2=O (racemic) [I-018]
100%: pre-emergence activity against LOLRI ([3]; application rate 320 g/ha) | pre-emergence activity against ECHCG ([4]; application rate 320 g/ha) | pre-emergence activity against POAAN ([10]; pre-emergence, 1290 g/ha, 504 h)
90%: pre-emergence activity against MATIN ([1]; application rate 1280 g/ha) | post-emergence activity against ECHCG ([2]; application rate 320 g/ha) | post-emergence activity against VERPE ([5]; application rate 320 g/ha) | pre-emergence activity against SETVI [6] | post-emergence activity against ALOMY [7] | pre-emergence activity against ALOMY [8] | post-emergence activity against SETVI ([9]; application rate 320 g/ha)

O=C1N(Cc2ccccc2F)CCC12CCCN(Cc1c(F)cccc1F)C2=O (racemic) [I-024]
100%: pre-emergence activity against LOLRI ([3]; application rate 320 g/ha) | pre-emergence activity against ECHCG ([4]; application rate 1280 g/ha) | pre-emergence activity against DIGSA [24] | pre-emergence activity against SETVI [6] | pre-emergence activity against SETVI [31] | pre-emergence activity against ECHCG [32] | pre-emergence activity against POAAN [10, 42]
0%: post-emergence activity against ZEAMX [12] | pre-emergence activity against ZEAMX [14] | post-emergence activity against ORYZA [17] | post-emergence activity against TRZAS [19] | post-emergence activity against BRSNW [20] | pre-emergence activity against ORYZA [29] | pre-emergence activity against TRZAS [37] | pre-emergence activity against GLXMA [39]
90%: pre-emergence activity against MATIN ([1]; application rate 320 g/ha) | pre-emergence activity against VERPE [11] | pre-emergence activity against ALOMY [13] | post-emergence activity against ECHCG ([2]; application rate 1280 g/ha) | pre-emergence activity against MATIN [16] | pre-emergence activity against LOLRI [18] | pre-emergence activity against STEME [22] | post-emergence activity against LOLRI [23] | pre-emergence activity against AMARE [25] | pre-emergence activity against VIOTR [26] | post-emergence activity against MATIN [27] | pre-emergence activity against POLCO [28] | pre-emergence activity against KCHSC [30] | pre-emergence activity against ALOMY [8] | post-emergence activity against SETVI ([9]; application rate 1280 g/ha) | pre-emergence activity against ABUTH [34] | pre-emergence activity against ABUTH [35] | pre-emergence activity against VERPE [36] | post-emergence activity against ECHCG [38]
80%: post-emergence activity against VIOTR [15] | post-emergence activity against ALOMY [21] | pre-emergence activity against DIGSA [40]
20%: pre-emergence activity against BRSNW [33]

O=C1N(Cc2ccccc2F)CCCC12CCCN(Cc1ccccc1Br)C2=O (racemic) [I-042]
90%: post-emergence activity against VERPE ([5]; application rate 1280 g/ha) | pre-emergence activity against SETVI [6] | post-emergence activity against ALOMY [7] | post-emergence activity against POAAN [41]
100%: pre-emergence activity against LOLRI ([3]; application rate 1280 g/ha) | pre-emergence activity against ECHCG ([4]; application rate 320 g/ha) | pre-emergence activity against POAAN [10, 42]
